In ChEMBL document CHEMBL3804804, “Synthesis and antimycobacterial activity of N-(2-aminopurin-6-yl) and N-(purin-6-yl) amino acids and dipeptides” (Bioorg Med Chem Lett, 2016):

Columns and labels:
[1] = test system: Mycobacterium tuberculosis; test: Antimycobacterial activity against multidrug-resistant Mycobacterium tuberculosis harbouring Beijing genotype with combination of mutations of Ser 53-Leu 315 and Ser-Thr in rpoB and katG genes after 10 days by micro broth dilution method; type: functional
[2] = Selectivity index, ratio of IC50 for human FEH cells to MIC for multidrug-resistant Mycobacterium tuberculosis; type: toxicity, cell-based

| SMILES | MIC [1] [µg/mL] | selectivity ratio [2] |
| --- | --- | --- |
| CSCC[C@H](NC(=O)CNc1nc(N)nc2[nH]cnc12)C(=O)O.O | 3.1 | – |
| O.O=C(O)CC[C@H](NC(=O)CNc1ncnc2[nH]cnc12)C(=O)O | 0.7 | > 25 |
| CC(=O)Nc1nc(N2CCC[C@H]2C(=O)OC(C)(C)C)c2nc[nH]c2n1 | 6.25 | – |
| Nc1nc(NCC(=O)N[C@@H](CCC(=O)O)C(=O)O)c2nc[nH]c2n1 | 0.7 | > 25 |
| COC(=O)CNc1nc(N)nc2[nH]cnc12.Cl.Cl | 6.25 | – |
| CC(C)[C@H](Nc1nc(N)nc2[nH]cnc12)C(=O)O | 6.25 | – |
| COC(=O)[C@H](Cc1ccccc1)NC(=O)CNc1ncnc2[nH]cnc12 | 1.5 | – |
| CC(=O)Nc1nc(NCC(=O)O)c2nc[nH]c2n1 | 0.7 | – |
| COC(=O)[C@H](CCSC)NC(=O)CNc1nc(NC(C)=O)nc2[nH]cnc12 | 3.1 | – |
| CC1COc2c(N3CCN(C)CC3)c(F)cc3c(=O)c(C(=O)O)cn1c23 (configuration not stated) [OFLOXACIN] | 0.1 | – |
